Article PMC7072973, “Differential Signaling Profiles of MC4R Mutations with Three Different Ligands” (International Journal of Molecular Sciences, 2020)
“Also recorded” adds a separate entry of the source. Like-named read-outs stand apart in the source and are kept apart here.

How the values were obtained:
MC4R WT [1] = target: T1, MC4R WT (Homo sapiens, UniProt P32245); conditions: HEK293, NFAT-luc, 6 h, mean ± SEM, 3 to 7 experiments in triplicates
Target sequence in this assay (P32245 whole entry): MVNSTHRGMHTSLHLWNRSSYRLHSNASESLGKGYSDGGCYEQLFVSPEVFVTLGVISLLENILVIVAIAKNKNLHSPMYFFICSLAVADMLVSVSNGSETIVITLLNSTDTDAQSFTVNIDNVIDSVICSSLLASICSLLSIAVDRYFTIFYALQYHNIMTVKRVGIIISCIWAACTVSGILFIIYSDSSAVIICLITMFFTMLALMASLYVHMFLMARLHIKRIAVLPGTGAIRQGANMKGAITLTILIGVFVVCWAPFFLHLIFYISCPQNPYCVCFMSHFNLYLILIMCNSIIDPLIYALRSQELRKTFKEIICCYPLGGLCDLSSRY
Description: (§5) Activation of PLC, RhoA and ERK1/2 phosphorylation was determined using luciferase-based reporter gene assays that utilize responsive elements in the promotor region of the gene encoding a firefly luciferase. For PLC activation, the NFAT responsive element (NFAT-luc, pGL4.33) was co-transfected with the receptor mutations. Similarly, co-transfections with SRF responsive element (SRF-luc, pGL4.33, Promega, Mannheim, Germany) for RhoA activation and Serum response element (SRE-luc, pGL3.4, Promega, Mannheim, Germany) for ERK1/2 phosphorylation were performed. […]
(§6) Measurement of luciferase activity provided information about the activation of the respective second messenger by transferring 10 µL lysate into a white opaque 96-well plate. Injection of 40 µL firefly luciferase substrate (Promega, Mannheim, Germany) and measurement of luminescence was performed with a plate reader (Mithras LB 940).
(§7) Concentration–response curves of each experiment were analyzed by fitting a non-linear regression model for sigmoidal response in Graph Pad Prism 6 (GraphPad Software Inc., La Jolla, CA, USA) to determine potency (EC50 values). […] Emax is the maximal response (efficiency) of the mutation, which was determined from the concentration–response curves. […]

MC4R WT [2] = target: T1, MC4R WT; conditions: HEK293, SRE-luc, 6 h, mean ± SEM, 3 to 7 experiments in triplicates
Target sequence in this assay (P32245 whole entry): as above
Description: as §5, §6, §7

MC4R V103I [3] = target: T2, MC4R V103I (Homo sapiens, UniProt P32245, V103I)
Target sequence in this assay (P32245 whole entry V103I): as the sequence (P32245 whole entry) above, with V103I counted along it
Description: as §5, §6, §7

MC4R WT [4] = target: T1, MC4R WT; conditions: HEK293, SRF-luc, 6 h, mean ± SEM, 3 to 7 experiments in triplicates
Target sequence in this assay (P32245 whole entry): as the sequence (P32245 whole entry) above
Description: as §5, §6, §7

MC4R WT [5] = target: T1, MC4R WT; experiment: β-arrestin2 recruitment (NanoBRET), MC4R WT; type: cell-based; parameters: expressed in transfected cells; host or cells: HEK293; conditions: HEK293, β-arrestin2, 5 min, mean ± SEM, 3 to 7 experiments in triplicates
Description: (§1) A total of 16–20 h after transfection in 6-well plates, cells were detached, and cell number was adjusted to 2.2 × 10^5 cells/mL in Opti-MEM without phenol red supplemented with 4% FBS. Cells were divided into two pools, adding either the acceptor NanoBRET™ Ligand 618 (1 µL/mL cells of 0.1 mM solution) or the same amount of DMSO as background control. After reseeding 90 µL cell suspension/well into a white 96-well plates, incubation was continued for 4–6 h.
(§2) For measurements, 25 µL of NanoBRET™ substrate was injected using a plate reader (Mithras LB 940). Donor and acceptor emission were measured at 460 nm and 610 nm, respectively, and the BRET ratio was calculated by dividing acceptor emission by donor emission:(1) BRET ratio =emissionacceptor/emissiondonor
(§3) The ratio was corrected for background bleed through by subtracting of the background ratio (no acceptor DMSO control) and conversion to milliBRET units (mBU):(2) corrected BRET ratio [mBU]=(BRET ratiosample−BRET rationo acceptor control)×1000
(§4) To calculate the difference between stimulated and basal interaction, the NET BRET was acquired using the formula:(3) NET BRET = corrected BRET ratiostim− corrected BRET ratiobasal
Target sequence in this assay (P32245 whole entry): as above
Target sequence in this assay (P29067 whole entry partner): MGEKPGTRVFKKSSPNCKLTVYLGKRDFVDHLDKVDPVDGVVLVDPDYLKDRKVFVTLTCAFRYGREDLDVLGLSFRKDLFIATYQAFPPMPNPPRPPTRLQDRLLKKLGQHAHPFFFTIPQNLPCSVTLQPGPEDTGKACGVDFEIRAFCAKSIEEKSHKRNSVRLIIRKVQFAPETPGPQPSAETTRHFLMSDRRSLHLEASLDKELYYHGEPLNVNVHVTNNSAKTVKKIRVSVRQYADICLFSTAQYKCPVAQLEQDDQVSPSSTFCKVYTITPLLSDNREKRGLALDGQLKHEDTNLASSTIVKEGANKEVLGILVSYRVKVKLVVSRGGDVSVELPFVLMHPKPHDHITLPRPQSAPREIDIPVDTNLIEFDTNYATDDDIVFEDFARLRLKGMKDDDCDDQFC

MC4R H158R [6] = target: T3, MC4R H158R (Homo sapiens, UniProt P32245, H158R)
Target sequence in this assay (P32245 whole entry H158R): as the sequence (P32245 whole entry) above, with H158R counted along it
Description: as §5, §6, §7

MC4R V103I [7] = target: T2, MC4R V103I; remark: listed apart in the source
Target sequence in this assay (P32245 whole entry V103I): as the sequence (P32245 whole entry) above, with V103I counted along it
Description: (§8) Therefore, in addition to cAMP measurements to assess GS activation in the absence and presence of 100 nM AgRP, we measured Gi/o activation via determination of second messenger (cAMP) modulation by adenylyl cyclase (AC) in the absence or presence of pertussis toxin (PTX) pretreatment. In the presence of PTX, which locks the Gαi/o subunit in its GDP-bound inactivated state, the G protein is no longer able to inhibit the AC to form cAMP [48]. Although this is an indirect way of measuring the contributions from Gi/o signaling to the total amount of intracellular cAMP, we will refer to these measurements as Gi/o coupling in order to simplify the results part.
(§9) GS and Gi coupling to the MC4R were determined using the AlphaScreen™ assay (Perkin Elmer Life Science, Boston, MA, USA) performed according to the manufacturer’s protocol and described elsewhere [68]. […] Determination of Gi coupling was investigated by pretreatment with 50 µg/mL PTX 18 h before stimulation. […]
(§10) The determination of cAMP using the AlphaScreen™ assay is a competitive immune assay based on antibody-coupled acceptor beads that bind cAMP and streptavidin-coupled donor beads that bind to a biotinylated cAMP probe. […] Absolute amounts of cAMP are determined by the simultaneous measurement of a cAMP standard. The plate reader (Mithras 940 LB)) was used for the read out, at 565 nm. […]

MC4R V103I [8] = target: T2, MC4R V103I; remark: listed apart in the source
Target sequence in this assay (P32245 whole entry V103I): as the sequence (P32245 whole entry) above, with V103I counted along it
Description: (§11) GS and Gi coupling to the MC4R were determined using the AlphaScreen™ assay (Perkin Elmer Life Science, Boston, MA, USA) performed according to the manufacturer’s protocol and described elsewhere [68]. […] Determination of Gi coupling was investigated by pretreatment with 50 µg/mL PTX 18 h before stimulation. All stimulations were performed at 37 °C and 5% CO2. Incubation was stopped by removing the compounds and lysing the cells in lysis buffer containing IBMX for 1.5–2 h at 4 °C on a shaking platform.
The determination of cAMP using the AlphaScreen™ assay is a competitive immune assay based on antibody-coupled acceptor beads that bind cAMP and streptavidin-coupled donor beads that bind to a biotinylated cAMP probe. Excitement of the donor bead leads to the conversion of ambient oxygen to a singlet state. In close proximity of donor and acceptor beads through binding the biotinylated probe, the acceptor reacts with the singlet molecule and emits light. Absolute amounts of cAMP are determined by the simultaneous measurement of a cAMP standard. The plate reader (Mithras 940 LB)) was used for the read out, at 565 nm.
Concentration–response curves of each experiment were analyzed by fitting a non-linear regression model for sigmoidal response in Graph Pad Prism 6 (GraphPad Software Inc., La Jolla, CA, USA) to determine potency (EC50 values). For mutations that had EC50 values outside of concentration tested, it was set to the appropriate highest concentration tested. Signaling bias analysis was performed as described by Kenakin (2017) [69] using the formula (4) Δlog(Emax/EC50) = log(Emaxtest/EC50 test)−log(Emaxref/EC50 ref) with test referring to the tested receptor mutation and ref being reference (MC4R WT). Emax is the maximal response (efficiency) of the mutation, which was determined from the concentration–response curves. Where no Emax could be determined from incomplete curves (e.g., in case of AgRP co-stimulation), the response of the maximal concentration was substituted as has been described by Winpenny et al. (2016) [70].

MC4R V103I [9] = target: T2, MC4R V103I; type: cell-based; parameters: expressed in transfected cells; host or cells: HEK293; conditions: HEK293, β-arrestin2, 5 min, mean ± SEM, 3 to 7 experiments in triplicates
Description: as §1, §2, §3, §4
Target sequence in this assay (P32245 whole entry V103I): as the sequence (P32245 whole entry) above, with V103I counted along it
Target sequence in this assay (P29067 whole entry partner): as the sequence (P29067 whole entry partner) above

MC4R H158R [10] = target: T3, MC4R H158R; type: cell-based; parameters: expressed in transfected cells; host or cells: HEK293
Description: as §1, §2, §3, §4
Target sequence in this assay (P32245 whole entry H158R): as the sequence (P32245 whole entry) above, with H158R counted along it
Target sequence in this assay (P29067 whole entry partner): as the sequence (P29067 whole entry partner) above

MC4R H158R [11] = target: T3, MC4R H158R; remark: listed apart in the source
Target sequence in this assay (P32245 whole entry H158R): as the sequence (P32245 whole entry) above, with H158R counted along it
Description: as §5, §6, §7

MC4R WT [12] = target: T1, MC4R WT; conditions: HEK293, cAMP, 40 min, IBMX, mean ± SEM, 3 to 7 experiments in triplicates
Target sequence in this assay (P32245 whole entry): as the sequence (P32245 whole entry) above
Description: as §11
(§12) The determination of cAMP using the AlphaScreen™ assay is a competitive immune assay based on antibody-coupled acceptor beads that bind cAMP and streptavidin-coupled donor beads that bind to a biotinylated cAMP probe. Excitement of the donor bead leads to the conversion of ambient oxygen to a singlet state. […] Absolute amounts of cAMP are determined by the simultaneous measurement of a cAMP standard. The plate reader (Mithras 940 LB)) was used for the read out, at 565 nm.
as §7

MC4R WT [13] = experiment: GS signaling (cAMP) with AgRP co-stimulation, MC4R WT; type: cell-based, human
Description: (§13) Therefore, in addition to cAMP measurements to assess GS activation in the absence and presence of 100 nM AgRP, we measured Gi/o activation via determination of second messenger (cAMP) modulation by adenylyl cyclase (AC) in the absence or presence of pertussis toxin (PTX) pretreatment.
as §11, §12

MC4R H158R [14] = target: T3, MC4R H158R; remark: listed apart in the source
Target sequence in this assay (P32245 whole entry H158R): as the sequence (P32245 whole entry) above, with H158R counted along it
Description: as §5, §6, §7

MC4R H158R [15] = target: T3, MC4R H158R; remark: listed apart in the source
Target sequence in this assay (P32245 whole entry H158R): as the sequence (P32245 whole entry) above, with H158R counted along it
Description: as §11, §12, §7

MC4R H158R [16] = target: T3, MC4R H158R; remark: listed apart in the source
Target sequence in this assay (P32245 whole entry H158R): as the sequence (P32245 whole entry) above, with H158R counted along it
Description: as §8, §9, §10

MC4R V103I [17] = target: T2, MC4R V103I; remark: listed apart in the source
Target sequence in this assay (P32245 whole entry V103I): as the sequence (P32245 whole entry) above, with V103I counted along it
Description: as §5, §6, §7

MC4R V103I [18] = target: T2, MC4R V103I; remark: listed apart in the source
Target sequence in this assay (P32245 whole entry V103I): as the sequence (P32245 whole entry) above, with V103I counted along it
Description: as §5, §6, §7

MC4R WT [19] = target: T1, MC4R WT; conditions: HEK293, PTX-sensitive cAMP, mean ± SEM, 3 to 7 experiments in triplicates
Target sequence in this assay (P32245 whole entry): as the sequence (P32245 whole entry) above
Description: as §8, §9, §10

MC4R = conditions: cited from earlier work
Description: The MC4R signals mainly via activation of the stimulating G protein GS, which leads to an increase in intracellular cyclic adenosine-monophosphate (cAMP). In recent years, more and more studies provided evidence that the MC4R is able to couple to a variety of signaling pathways, such as extracellular regulated kinase (ERK) activation, and to other G proteins, such as Gi/o, Gq/11 and G12/13 [10, 11, 12, 13]. These pathways might also be involved in the anorexigenic effect of the activated MC4R [14].

MC4R H158R [20] = conditions: 100 nM AgRP
MC4R V103I [21] = conditions: agonist α-MSH, 100 nM AgRP
[22] = system: all tested MC4R mutations; experiment: GS signaling (cAMP) with AgRP, all tested MC4R mutations; conditions: all tested MC4R mutations and ligands; Figure S1
Description: as §13, §11, §12

MC4R V103I [23] = conditions: synthetic agonist MTII; cited from earlier work
[24] = HEK293, SRE-luc, 6 h, mean ± SEM, 3 to 7 experiments in triplicates
[25] = HEK293, SRF-luc, 6 h, mean ± SEM, 3 to 7 experiments in triplicates
[26] = HEK293, PTX-sensitive cAMP, mean ± SEM, 3 to 7 experiments in triplicates
[27] = HEK293, cAMP, 40 min, IBMX, mean ± SEM, 3 to 7 experiments in triplicates
[28] = HEK293, NFAT-luc, 6 h, mean ± SEM, 3 to 7 experiments in triplicates

In the case of `CSCC[C@H](NC(=O)[C@H](CCCNC(=N)N)NC(=O)[C@H](Cc1ccc(O)cc1)NC(=O)[C@@H]1CCCN1C(=O)CNC(=O)[C@H](CCC(=O)O)NC(=O)[C@H](CC(=O)O)NC(=O)[C@H](CCCCN)NC(=O)[C@H](CCCCN)NC(=O)[C@H](CCC(=O)O)NC(=O)[C@H](C)N)C(=O)N[C@@H](CCC(=O)O)C(=O)N[C@@H](Cc1c[nH]cn1)C(=O)N[C@@H](Cc1ccccc1)C(=O)N[C@@H](CCCNC(=N)N)C(=O)N[C@@H](Cc1c[nH]c2ccccc12)C(=O)NCC(=O)N[C@@H](CO)C(=O)N1CCC[C@H]1C(=O)N1CCC[C@H]1C(=O)N[C@@H](CCCCN)C(=O)N[C@@H](CC(=O)O)C(=O)O` [β-MSH, β-melanocyte stimulating hormone], the Emax (MC4R WT [1]) is reported as 6.58 fold over WT basal, the Emax (MC4R WT [2]) is reported as 4.94 fold over WT basal and the “ERK phosphorylation compared to WT” value (MC4R V103I [3]) is reported as “tendency towards an ERK signaling bias, which was not significant”. The Emax (MC4R V103I [3]; [24]) was 5.14 fold over WT basal, the Emax (MC4R WT [4]) was 2.40 fold over WT basal and the Emax (MC4R WT [5]) was 1.93 fold over WT basal. The “G12/13 (RhoA) activation compared to WT” value (MC4R H158R [6]) was “WT-like activity in G12/13 and β-arrestin2 recruitment”, the Emax (MC4R H158R [6]; [25]) was 2.18 fold over WT basal and the “Gi/o coupling compared to WT” value (MC4R V103I [7]) was “strong positive bias towards Gi/o coupling”. For the same compound, the Emax (MC4R V103I [7]; [26]) was 16.65 fold over WT basal, the “GS signaling compared to WT” value (MC4R V103I [8]) was “reduced (though not significantly); also recorded: tendency towards low GS signaling” and the Emax (MC4R V103I [8]; [27]) was 8.69 fold over WT basal. The Emax (MC4R V103I [9]) was 1.35 fold over WT basal, the “β-arrestin2 recruitment compared to WT” value (MC4R H158R [10]) was “WT-like activity in G12/13 and β-arrestin2 recruitment” and the “ERK phosphorylation compared to WT” value (MC4R H158R [11]) was “augmented ERK phosphorylation”. For the same compound, the Emax (MC4R H158R [11]; [24]) was 5.55 fold over WT basal, the Emax (MC4R WT [12]) was 10.05 fold over WT basal and the “GS signaling in the presence of 100 nM AgRP” value (MC4R WT [13]) was “not as strongly affected compared to the one of α-MSH”. For the same compound, the “Gq/11 (PLC) activation compared to WT” value (MC4R H158R [14]) was “increased GS and Gq/11 signaling”, the Emax (MC4R H158R [14]; [28]) was 10.40 fold over WT basal and the “GS signaling compared to WT” value (MC4R H158R [15]) was “increased GS and Gq/11 signaling”. The Emax (MC4R H158R [15]; [27]) was 14.85 fold over WT basal, the “Gi/o coupling compared to WT” value (MC4R H158R [16]) was “strong bias towards Gi/o signaling” and the Emax (MC4R H158R [16]; [26]) was 38.55 fold over WT basal. For the same compound, the “Gq/11 (PLC) activation compared to WT” value (MC4R V103I [17]) was “increased Gq/11 coupling”, the Emax (MC4R V103I [17]; [28]) was 14.65 fold over WT basal and the “G12/13 (RhoA) activation compared to WT” value (MC4R V103I [18]) was “strong positive bias towards Gi/o coupling, RhoA activation via G12/13”. It also gave an Emax (MC4R V103I [18]; [25]) of 2.29 fold over WT basal and an Emax (MC4R WT [19]) of 26.86 fold over WT basal.

In the case of “Agouti-related peptide (SSRRCVRLHESCLGQQVPCCDPCATCYCRFFNAFCYCRKLGTAMNPCSRT; UniProt O00253 83-132, looked up) [AgRP]”, the “mode of action at MC4R” value (MC4R; ref 15, 17) is listed as “inverse agonist”, the “mode of action at MC4R” value (MC4R; ref 15, 18) is listed as “competitive antagonist” and the “antagonistic effect of AgRP” value (MC4R H158R [20]; agonist α-MSH) is listed as “loss-of-antagonist effect”. The “antagonistic effect of AgRP” value (MC4R H158R [20]; agonist β-MSH) was “loses its antagonistic effect for this mutation”, the “antagonistic effect of AgRP” value (MC4R V103I [21]) was “tendency towards a reduced antagonist effect of AgRP, which was, however, not significant; also recorded: tendency towards a decreased antagonistic effect” and the “effect of AgRP on GS signaling” value [22] was “decreased GS signaling for all tested MC4R mutations and ligands”. The “AgRP antagonistic potency” value (MC4R V103I [23]) was “modestly reduced AgRP antagonistic potency”.
